Literature values in US20210322342A1, “ENDOXIFEN FOR THE TREATMENT OF BIPOLAR I DISORDER” (Jina Pharmaceuticals, Inc., priority 2020, published 2021).

How the values were obtained:
PKC = settings: compared to tamoxifen
[1] = for plasma levels of free thyroxin (fT4): use of antipsychotics

Row | SMILES | potency in inhibiting the PKC activity (PKC) | haematological adverse effects ([1]; in vivo) | plasma levels of free thyroxin (fT4) [1]
1 | CC/C(=C(\c1ccc(O)cc1)c1ccc(OCCNC)cc1)c1ccccc1.O=C(O)CC(O)(CC(=O)O)C(=O)O [Endoxifen, (Z)—1-(4-Hydroxyphenyl)-1-{4-[2-(monomethylamino)ethoxy]phenyl}—2—pheny 1-1-butene citrate] | four-fold higher potency | – | –
2 | Cc1cc2c(s1)Nc1ccccc1N=C2N1CCN(C)CC1 [olanzapine] | – | causes neutropenia and thrombocytopenia | significantly lower
3 | OCCOCCN1CCN(C2=Nc3ccccc3Sc3ccccc32)CC1 [quetiapine] | – | – | significantly lower
